Laboratory results from BigSolDB 2.1.

C[C@H]1[C@H](OC(=O)CCC(=O)O)O[C@@H]2O[C@@]3(C)CC[C@H]4[C@H](C)CC[C@@H]1[C@@]24OO3
Details	solubility (mole fraction)
in ethanol, 283.06 K	0.0113
in ethanol, 288.14 K	0.0136
in ethanol, 293.19 K	0.0168
in ethanol, 298.24 K	0.0208
in ethanol, 303.21 K	0.0263
in ethanol, 308.16 K	0.0334
in ethanol, 313.14 K	0.0423
in ethanol, 318.22 K	0.0536
in ethanol, 323.2 K	0.0657
in ethyl acetate, 283.17 K	0.0199
in ethyl acetate, 288.17 K	0.0221
in ethyl acetate, 293.16 K	0.0246
in ethyl acetate, 298.14 K	0.0278
in ethyl acetate, 303.17 K	0.0309
in ethyl acetate, 308.14 K	0.0344
in ethyl acetate, 313.17 K	0.0382
in ethyl acetate, 318.16 K	0.0423
in ethyl acetate, 323.19 K	0.0473
in isobutanol, 283.14 K	0.00543
in isobutanol, 288.07 K	0.00698
in isobutanol, 293.14 K	0.00912
in isobutanol, 298.1 K	0.0118
in isobutanol, 303.05 K	0.0155
in isobutanol, 308.08 K	0.0196
in isobutanol, 313.07 K	0.0252
in isobutanol, 318.05 K	0.0325
in isobutanol, 323.15 K	0.0408
in isopentanol, 283.16 K	0.00573
in isopentanol, 288.17 K	0.00721
in isopentanol, 293.14 K	0.00915
in isopentanol, 298.16 K	0.0119
in isopentanol, 303.16 K	0.0151
in isopentanol, 308.14 K	0.0194
in isopentanol, 313.17 K	0.0244
in isopentanol, 318.16 K	0.031
in isopentanol, 323.16 K	0.0397
in isopropanol, 283.06 K	0.00541
in isopropanol, 288.14 K	0.00717
in isopropanol, 293.19 K	0.00965
in isopropanol, 298.24 K	0.012
in isopropanol, 303.21 K	0.016
in isopropanol, 308.16 K	0.0209
in isopropanol, 313.14 K	0.0276
in isopropanol, 318.22 K	0.0362
in isopropanol, 323.2 K	0.047
in isopropyl acetate, 283.17 K	0.0122
in isopropyl acetate, 288.19 K	0.0135
in isopropyl acetate, 293.2 K	0.0149
in isopropyl acetate, 298.14 K	0.0167
in isopropyl acetate, 303.19 K	0.0186
in isopropyl acetate, 308.16 K	0.0206
in isopropyl acetate, 313.14 K	0.0229
in isopropyl acetate, 318.14 K	0.0258
in isopropyl acetate, 323.2 K	0.029
in methyl propionate, 283.19 K	0.0207
in methyl propionate, 288.22 K	0.0232
in methyl propionate, 293.23 K	0.0258
in methyl propionate, 298.17 K	0.0286
in methyl propionate, 303.23 K	0.0318
in methyl propionate, 308.14 K	0.0355
in methyl propionate, 313.24 K	0.0395
in methyl propionate, 318.16 K	0.0442
in methyl propionate, 323.18 K	0.0497
in n-butanol, 283.14 K	0.00719
in n-butanol, 288.07 K	0.00886
in n-butanol, 293.14 K	0.0112
in n-butanol, 298.1 K	0.0143
in n-butanol, 303.05 K	0.0181
in n-butanol, 308.08 K	0.0233
in n-butanol, 313.07 K	0.0298
in n-butanol, 318.05 K	0.0379
in n-butanol, 323.15 K	0.0485
in n-butyl acetate, 283.17 K	0.012
in n-butyl acetate, 288.19 K	0.0135
in n-butyl acetate, 293.2 K	0.015
in n-butyl acetate, 298.14 K	0.0168
in n-butyl acetate, 303.19 K	0.0191
in n-butyl acetate, 308.16 K	0.0213
in n-butyl acetate, 313.14 K	0.0237
in n-butyl acetate, 318.14 K	0.0269
in n-butyl acetate, 323.2 K	0.0304
in n-pentanol, 283.23 K	0.0111
in n-pentanol, 288.23 K	0.0137
in n-pentanol, 293.29 K	0.017
in n-pentanol, 298.5 K	0.0216
in n-pentanol, 303.24 K	0.0266
in n-pentanol, 308.02 K	0.0328
in n-pentanol, 313.08 K	0.0408
in n-pentanol, 318.05 K	0.0491
in n-pentanol, 323.1 K	0.0594
in n-pentyl acetate, 283.14 K	0.00918
in n-pentyl acetate, 288.24 K	0.0104
in n-pentyl acetate, 293.3 K	0.0117
in n-pentyl acetate, 298.28 K	0.0133
in n-pentyl acetate, 303.24 K	0.0149
in n-pentyl acetate, 308.22 K	0.0168
in n-pentyl acetate, 313.13 K	0.0191
in n-pentyl acetate, 318.18 K	0.0216
in n-pentyl acetate, 323.24 K	0.0244
in n-propanol, 283.14 K	0.00832
in n-propanol, 288.07 K	0.0103
in n-propanol, 293.14 K	0.013
in n-propanol, 298.08 K	0.0163
in n-propanol, 303.02 K	0.0207
in n-propanol, 308.05 K	0.0264
in n-propanol, 313.03 K	0.034
in n-propanol, 318.05 K	0.0427
in n-propanol, 323.05 K	0.0542
in n-propyl acetate, 283.16 K	0.0159
in n-propyl acetate, 288.24 K	0.0176
in n-propyl acetate, 293.16 K	0.0194
in n-propyl acetate, 298.18 K	0.0216
in n-propyl acetate, 303.16 K	0.024
in n-propyl acetate, 308.16 K	0.0269
in n-propyl acetate, 313.18 K	0.0302
in n-propyl acetate, 318.16 K	0.0336
in n-propyl acetate, 323.16 K	0.0375
